Results on six molecules are retold here after paper PMC12441834, “Highly Potent and Subtype-Selective Sperm-Specific Potassium Channel SLO3 Inhibitors Display High Tissue Exposure in the Murine Female Reproductive Tract” (ACS Pharmacology & Translational Science, 2025).

In one data set the target is T1, hERG (Homo sapiens, UniProt Q12809).
T1 construct: expressed in transfected cells
In words: hERG patch clamp electrophysiology (HEK-293-hERG). Format: cell-based. Particulars: for selectivity ratio: pH 7.35, hERG IC50 / hSLO3 IC50, read-out: hERG selectivity [fold] (SLO3 versus hERG); for IC50: whole-cell patch clamp, HEK-293-hERG. How it is done: Whole-cell patch-clamp electrophysiology was used to record hERG currents from a stably transfected monoclonal cell line expressing human hERG. The HEK-293-hERG cell line was generously provided by Dr. David Weaver (Vanderbilt University). Cells were cultured in a 5% CO2 incubator at 37 °C, dissociated with 0.25% Trypsin-EDTA, and seeded onto 12 mm circular coverslips (Electron Microscopy Sciences, PA, USA) for same-day whole-cell patch-clamp recordings. hERG currents were recorded at room temperature by using an AxoPatch 200B amplifier with Clampex 10.7 software (Molecular Devices, USA). The voltage-clamp protocol consisted of a 4-s step to +30 mV from a −80 mV holding potential, followed by a 4-s step to −40 mV, repeated every 10 s. Data were sampled at 5 kHz and filtered at 1 kHz. Patch pipettes, pulled from 1.5 mm OD thin-walled capillaries (Warner Instruments, MA, USA) using a Sutter P-1000 puller (Sutter Instrument, CA, USA), had resistances of 2–3 MΩ when filled with intracellular solution containing (mM): 135 KCl, 10 HEPES, 1 EGTA, 2 MgCl2, 2 Na2ATP (pH 7.35, adjusted with KOH). The extracellular solution contained (mM): 135 NaCl, 5 KCl, 2 CaCl2, 1 MgCl2, 5 Glucose, 10 HEPES, and 10 Sucrose (pH 7.35, adjusted with NaOH). After establishing stable baseline hERG currents, cells were perfused with compounds at concentrations of 0.03–30 μM until response saturation (typically 2–8 min). Recordings concluded with a 10 μM Quinidine solution to isolate Quinidine-sensitive currents, with compound responses expressed as fractions of this current. Peak “tail” current amplitudes at the beginning of −40 mV steps were analyzed using Clampfit 11.2 (Molecular Devices). IC50 values were calculated by fitting the Hill equation to concentration–response curves (CRCs) using the built-in Y = Bottom + (Top – Bottom)/(1 + (IC50/X)^HillSlope) model (nonlinear regression fit: [Inhibitor] vs response – Variable slope (four parameters)) in GraphPad Prism 10.4 (GraphPad Software).
(Block of hERG is tested as a sign of cardiac risk.)

A short description of another data set: Kinetic solubility. Format: physicochemical. To be noted: aqueous buffer, kinetic from dmso stock; pH 2.2; pH 6.8; read-out: Kinetic Solubility (pH 2.2; pH6.8).
Data set [1] in a line: Intrinsic clearance in liver microsomes. In kind it is in vitro ADME, rat. To be noted: for Rat CLhep, % Hepatic blood flow: rat liver microsomes; for CLhep predicted at 1 μM: rat, liver microsomes, pH 7.4, rat liver microsomes, read-out: Rat CLhep (in vitro hepatic clearance from microsomal CLint). The protocol: (§1) The in vitro intrinsic clearance (CLint) was investigated in commercially obtained hepatic microsomes from mouse, rat, and human donors using the substrate depletion (i.e., loss-of-parent vs time, or half-life (t 1/2) method) approach with analyte detection via liquid chromatography–tandem mass spectrometry (LC-MS/MS). For each species, mean %parent remaining values at each time point were calculated from replicate raw data (analyte:IS peak area ratios) and used to determine in vitro t 1/2 and CLint.
(§2) Experiments were carried out by using a robot-assisted liquid handler (Bravo with BenchCell, Agilent). The compound was incubated (1 μM final concentration) in buffer (100 mM potassium phosphate pH 7.4 with 3 mM MgCl2) containing hepatic microsomes (0.5 mg/mL final concentration) from each species, discretely, at 37 °C under constant orbital shaking. After 5 min (preincubation), reactions were initiated by the addition of nicotinamide adenine dinucleotide phosphate (NADPH, 1 mM final concentration). At selected time intervals (0, 3, 7, 15, 25, and 45 min) postaddition of NADPH, aliquots (50 μL) were taken and placed into a 96-shallow-well plate containing ice-cold acetonitrile (150 μL) with carbamazepine (IS, 50 nM). The plates were then centrifuged (3000 rcf at 4 °C) for 10 min. The supernatants were transferred to a new 96-shallow-well daughter plate and diluted (1:1 v/v) with water (Milli-Q filtered). The plates were then sealed for preparation for LC-MS/MS analysis (see below).
(§3) Analyte:IS peak area ratios generated by LC-MS/MS were used to construct natural log-transformed %parent remaining vs time plots (using t = 0 min post-NADPH addition sample data as the starting point set to 100%). In vitro compound t 1/2 values were calculated by using the following equation: t1/2=ln(2)/k where k is the slope from the linear regression analysis of the natural log-transformed data (using means from all replicates at each time point). Resulting t 1/2 values were then used to calculate hepatic CLint values according to the following equation and with the use of species-specific scale-up factors for liver weight (grams) per total body weight (kg): CLint=0.693/invitrot1/2×1mLincubation/0.5mgmicrosomes×45mgmicrosomes/1gramliver×garamliver/kgbodywt
(§4) ^aScale-up factors used are 45 (rat) and 20 (human).
(§5) Predicted hepatic clearance (CLhep) was calculated by using the following equation: CLhep=Qh×CLint/Qh+CLint
(§6) Q h represents hepatic blood flow (mL/min/kg): 21 for humans, 70 for rats, and 90 for mouse.

The nature of data set [2]: Intrinsic clearance in liver microsomes. Format: in vitro ADME, mouse. To be noted: for Mouse CLhep, % Hepatic blood flow: mouse liver microsomes; for CLhep predicted at 1 μM: mouse, liver microsomes, pH 7.4, mouse liver microsomes, read-out: Mouse CLhep (in vitro hepatic clearance from microsomal CLint). The protocol: as §1, §2, §3, §4, §5, §6
Setting [3] is: human, HEK-293 cells stably expressing hERG.

Where two headings read alike, the source gives them in different places.

T1 sequence (Q12809 whole entry): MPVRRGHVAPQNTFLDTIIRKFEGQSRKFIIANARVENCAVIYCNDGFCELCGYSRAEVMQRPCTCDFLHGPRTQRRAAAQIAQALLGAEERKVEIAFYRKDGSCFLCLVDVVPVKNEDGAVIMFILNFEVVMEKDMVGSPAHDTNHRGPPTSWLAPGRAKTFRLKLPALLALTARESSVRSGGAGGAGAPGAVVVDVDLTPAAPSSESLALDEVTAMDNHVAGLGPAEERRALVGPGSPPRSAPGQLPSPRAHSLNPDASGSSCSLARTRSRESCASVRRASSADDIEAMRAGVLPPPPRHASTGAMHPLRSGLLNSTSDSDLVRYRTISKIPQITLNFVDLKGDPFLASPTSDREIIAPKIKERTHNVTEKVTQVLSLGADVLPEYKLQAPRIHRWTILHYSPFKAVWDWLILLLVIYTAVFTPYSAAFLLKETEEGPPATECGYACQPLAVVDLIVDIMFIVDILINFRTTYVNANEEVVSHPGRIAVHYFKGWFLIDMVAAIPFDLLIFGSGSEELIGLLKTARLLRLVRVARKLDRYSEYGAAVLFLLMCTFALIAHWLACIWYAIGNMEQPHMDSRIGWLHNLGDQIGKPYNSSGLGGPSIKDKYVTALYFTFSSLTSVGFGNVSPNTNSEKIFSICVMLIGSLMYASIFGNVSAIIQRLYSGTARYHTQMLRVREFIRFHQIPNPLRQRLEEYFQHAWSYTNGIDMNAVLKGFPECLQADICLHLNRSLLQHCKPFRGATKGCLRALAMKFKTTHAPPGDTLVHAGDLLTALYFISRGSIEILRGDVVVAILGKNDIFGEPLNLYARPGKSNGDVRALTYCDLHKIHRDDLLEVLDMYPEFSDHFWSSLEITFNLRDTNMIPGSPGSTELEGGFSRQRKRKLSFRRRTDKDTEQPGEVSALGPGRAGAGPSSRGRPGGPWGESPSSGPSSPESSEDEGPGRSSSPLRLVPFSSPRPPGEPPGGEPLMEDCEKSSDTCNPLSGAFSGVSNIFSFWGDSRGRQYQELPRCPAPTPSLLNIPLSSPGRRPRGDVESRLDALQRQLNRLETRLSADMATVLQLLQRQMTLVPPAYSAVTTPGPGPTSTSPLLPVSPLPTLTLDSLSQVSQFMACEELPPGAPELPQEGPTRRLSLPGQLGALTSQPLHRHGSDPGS

One may read the IC50 as the concentration at which inhibition is half-maximal. A high value points to lower potency. Take `Cc1cc(Cl)cc2sc(OC3CCN(C(=O)CCCS(=O)(=O)c4cccc(Br)c4)CC3F)nc12` (stereo not drawn) [VU6045330]: the selectivity ratio on hERG (setting [3]) worked out at 555. The molecule also had an IC50 on hERG of 73.3 µM.

What is called solubility (kinetic) is solubility judged after dilution from a stock solution rather than from solid. On to `Cc1cc(Cl)cc2sc(O[C@H]3CCN(C(=O)CCCS(=O)(=O)c4cccc(Br)c4)C[C@H]3F)nc12` [VU6047606], for which the midpoint of inhibition at hERG (human, HEK-293 cells stably expressing hERG, pH 7.35), the IC50, lay at 12.7 µM. On hERG, the half-inhibitory concentration (IC50) turned out to be 12 µM. Further, the kinetic solubility in “Kinetic solubility” is < 0.85 µM. Also, in data set [1], the “Rat CLhep, % Hepatic blood flow” value is listed as 71% and the CLhep predicted at 1 μM was > 46 mL/min/kg. In addition, in data set [2], the “Mouse CLhep, % Hepatic blood flow” value turned out to be 93% and the CLhep predicted at 1 μM was > 60 mL/min/kg.

Take `O=C(c1ccc(OCc2ccc(OC(F)(F)F)cc2)cc1)N1CCN(c2ccc(C(F)(F)F)cn2)CC1` [VU6032735]: the selectivity ratio on hERG (setting [3]) was determined as 172. The IC50 against hERG is 28.3 µM. Further, in the data set “Kinetic solubility”, the solubility (kinetic) was < 0.95 µM. Besides, in data set [1], the “Rat CLhep, % Hepatic blood flow” value worked out at 23% and the CLhep predicted at 1 μM is 16.2 mL/min/kg. In data set [2], the “Mouse CLhep, % Hepatic blood flow” value is 56% and the CLhep predicted at 1 μM was 50.1 mL/min/kg.

For `Cc1cc(Cl)cc2sc(O[C@@H]3CCN(C(=O)CCCS(=O)(=O)c4cccc(Br)c4)C[C@@H]3F)nc12` [VU6047608], in “Kinetic solubility”, the solubility (kinetic) was < 0.85 µM. For the same molecule, in data set [1], the “Rat CLhep, % Hepatic blood flow” value was found to be 72% and the CLhep predicted at 1 μM is 50.5 mL/min/kg. Moreover, in data set [2], the “Mouse CLhep, % Hepatic blood flow” value is recorded as 95% and the CLhep predicted at 1 μM is 85.9 mL/min/kg.

In the case of `Cc1cc(Cl)cc2sc(O[C@H]3CCN(C(=O)CCCS(=O)(=O)c4cccc(Br)c4)C[C@@H]3F)nc12` [VU6047609], the IC50 on hERG came to 56 µM. The solubility (kinetic) in “Kinetic solubility” is < 0.85 µM. In addition, in data set [1], the “Rat CLhep, % Hepatic blood flow” value was 89% and the CLhep predicted at 1 μM was 62.4 mL/min/kg. In data set [2], the “Mouse CLhep, % Hepatic blood flow” value was 97% and the CLhep predicted at 1 μM is 87.6 mL/min/kg.

Molecule `Cc1cc(Cl)cc2sc(O[C@@H]3CCN(C(=O)CCCS(=O)(=O)c4cccc(Br)c4)C[C@H]3F)nc12` [VU6047607] returned an IC50 at hERG of 17 µM. For the same molecule, the kinetic solubility in “Kinetic solubility” is < 0.85 µM. In addition, in data set [1], the “Rat CLhep, % Hepatic blood flow” value is reported as 76% and the CLhep predicted at 1 μM was 53.5 mL/min/kg. Moreover, in data set [2], the “Mouse CLhep, % Hepatic blood flow” value was 98% and the CLhep predicted at 1 μM is 88.1 mL/min/kg.
